Laboratory results from patent publication US20170107207A1, “AMINOPYRAZOLONE DERIVATIVE” (DAIICHI SANKYO COMPANY, LIMITED, priority 2014, published 2017).

Key:
[1] = tested on: U-138 MG; assay: Cell growth inhibition test, U-138 MG; type: cell-based; conditions: Homo sapiens, U138-MG, 72 h, Brain tumor Central Nerve System, 3 days, CellTiter-Glo
Description: (§1) A cell growth inhibition test was carried out by treating a cultured cancer cell line with a test compound for a given period and then counting the number of viable cells by CellTiter-Glo Luminescent Cell Viability Assay (manufactured by Promega Corp.).
(§2) The following cells were inoculated to a 384-well plate containing the compound prepared in advance at predetermined concentrations. […]
(§3) The cells thus inoculated were cultured at 37° C. for 3 days under 5% CO2. […] Then, luminescence intensity was measured using a plate reader.
(§4) The number of viable cells and luminescence intensity have been confirmed to correlate with each other. Therefore, the rate of cell growth was calculated according to the following expression: Rate of cell growth (T/C %) of a test compound-supplemented well=100×[(B−C)/(A−C)] wherein A represents the luminescence intensity (final culture date) of a test compound-free well; B represents the luminescence intensity (final culture date) of a test compound-containing well; and C represents the luminescence intensity (day of cell inoculation) of a well at the start of contact of the cells with the test compound.
(§5) T/C % at the concentration of each of the serially diluted test compounds was determined. […]

[2] = target: T1, TIP48/TIP49 complex (Homo sapiens, UniProt Q9Y230+Q9Y265); assay: ATPase assay of TIP48/TIP49 complex (ADP-Glo); type: biochemical; conditions: concentration at which the ATPase activity was inhibited by 50%
T1 construct: made in house; host or cells: E. coli
T1 sequence (Q9Y230 whole entry): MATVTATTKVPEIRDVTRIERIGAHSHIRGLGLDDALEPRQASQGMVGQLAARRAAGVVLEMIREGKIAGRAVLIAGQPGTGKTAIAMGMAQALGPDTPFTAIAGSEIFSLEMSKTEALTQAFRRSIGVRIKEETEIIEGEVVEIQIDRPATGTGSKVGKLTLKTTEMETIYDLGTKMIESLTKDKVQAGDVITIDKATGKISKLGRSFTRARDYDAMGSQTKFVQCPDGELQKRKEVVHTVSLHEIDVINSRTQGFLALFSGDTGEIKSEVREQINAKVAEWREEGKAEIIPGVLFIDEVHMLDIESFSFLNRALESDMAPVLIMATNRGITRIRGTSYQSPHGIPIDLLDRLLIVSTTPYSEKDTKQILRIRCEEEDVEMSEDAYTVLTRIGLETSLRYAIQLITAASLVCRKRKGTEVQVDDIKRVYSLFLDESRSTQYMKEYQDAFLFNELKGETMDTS
T1 sequence (Q9Y265 whole entry): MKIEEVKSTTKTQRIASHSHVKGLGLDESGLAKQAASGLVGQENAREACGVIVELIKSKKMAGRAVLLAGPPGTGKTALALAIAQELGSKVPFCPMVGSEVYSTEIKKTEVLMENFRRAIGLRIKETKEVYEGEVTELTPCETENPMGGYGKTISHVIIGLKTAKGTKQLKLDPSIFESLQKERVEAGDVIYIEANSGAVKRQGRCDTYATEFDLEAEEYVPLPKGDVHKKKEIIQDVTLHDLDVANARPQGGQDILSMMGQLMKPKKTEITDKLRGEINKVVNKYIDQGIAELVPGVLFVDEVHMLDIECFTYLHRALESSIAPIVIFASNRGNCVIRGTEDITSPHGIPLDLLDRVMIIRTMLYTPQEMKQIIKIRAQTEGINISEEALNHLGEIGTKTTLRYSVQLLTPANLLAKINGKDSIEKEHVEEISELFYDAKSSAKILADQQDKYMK
Method in brief: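 Compound was tested over 10 four-fold concentrations, 200 μM down to 0.0007 μM at 2% DMSO, against E. coli-derived human rTIP48/rTIP49 for 1.5 h at room temperature, pH 7.5 with ATP. ATP hydrolysis was read as ADP-Glo luminescence, normalised to complex-only and no-complex wells, then fitted to dose-response curves.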

[3] = tested on: COR-L23; assay: Cell growth inhibition test, COR-L23; type: cell-based; conditions: Homo sapiens, 72 h; COR-L23, Lung cancer, 3 days, CellTiter-Glo
Description: as §1, §2, §3, §4, §5

[4] = tested on: BT-474; assay: Cell growth inhibition test, BT-474; type: cell-based; conditions: Homo sapiens, 72 h; BT-474, Breast cancer, 3 days, CellTiter-Glo
Description: as §1, §2, §3, §4, §5

Row | IC50 [2] [nM] | GI50 [4] [nM] | Structure (SMILES) | GI50 [1] [nM] | GI50 [3] [nM]
1 | 70 | 1900 | CCOc1ccc(Cl)cc1C(=O)NCC(C)(C)CC(=O)Nc1c([C@H](C)CN(C)C)n(C)n(-c2ccccc2)c1=O [Example 68, 5-Chloro-N-[4-({5-[(1R)-2-(dimethylamino)-1-methylethyl]-1-methyl-3-oxo-2-phenyl-2,3-dihydro-1H-pyrazol-4-yl}amino)-2,2-dimethyl-4-oxobutyl]-2-ethoxybenzamide] | 670 | 200
2 | 48 | 5000 | CCOc1ncc(Cl)cc1C(=O)NCC(C)(C)CC(=O)Nc1c([C@H](C)CN(C)C)n(C)n(-c2ccccc2)c1=O [Example 73, 5-Chloro-N-[4-({5-[(1R)-2-(dimethylamino)-1-methylethyl]-1-methyl-3-oxo-2-phenyl-2,3-dihydro-1H-pyrazol-4-yl}amino)-2,2-dimethyl-4-oxobutyl]-2-ethoxypyridine-3-carboxamide] | 1000 | 550
3 | 39 | 25000 | CCOc1cc(F)c(Cl)cc1C(=O)NCC(C)(C)CC(=O)Nc1c(COC)n(C)n(-c2ccccc2)c1=O [Example 113, 5-Chloro-2-ethoxy-4-fluoro-N-(4-{[5-(methoxymethyl)-1-methyl-3-oxo-2-phenyl-2,3-dihydro-1H-pyrazol-4-yl]amino}-2,2-dimethyl-4-oxobutyl)benzamide] | 1000 | 420
